Like-named read-outs stand apart in the source and are kept apart here.
Key:
[1] = biological target: human VMAT2 (Homo sapiens (Human), UniProt Q05940); test: VMAT2 radioligand binding, 3H-dihydrotetrabenazine competition on human platelet homogenate
Summary of the method: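 Ki from scintillation counting of filter-bound ³H-dihydrotetrabenazine (10 nM) after 90 min, 25 °C incubation with twelve concentrations of compound. Membranes: human platelet homogenate, 30 μg protein per well; buffer DPBS, 1 mM EDTA, pH 7.4.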

[2] = Stability of compounds in human liver microsomes; type: in vitro ADME; settings: for CLint scaled at 0.5 μM / half-life at 0.5 μM: both sexes, pH 7.4; for CLint scaled at 0.5 μM: liver microsomes, calculated from HLM half-life, read-out: HLM Scaled Intrinsic Clearance; for CLint scaled at 0.5 μM / Predicted Max. Bioavailability (% F) / HLM Predicted Systemic Clearance: human; for half-life at 0.5 μM: 0.5 μM compound, 0.5 mg/mL human liver microsomes, 37° C., maxed at 420 minutes, read-out: HLM Elimination half-life (t1/2, min); for Predicted Max. Bioavailability (% F): predicted from HLM data; for HLM Predicted Systemic Clearance: scaled from HLM half-life (Obach method)
Summary of the method: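 Compound at 0.5 μM incubated at 37 °C with pooled mixed-gender human liver microsomes (0.5 mg/mL protein) and an NADPH-generating system in pH 7.4 phosphate buffer, sampled 0–60 min. Parent depletion tracked by LC-MS/MS; t1/2 derived from the slope by non-linear regression, with predicted extraction ratio and maximum bioavailability also calculated.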

[3] = 10 nM 3H-dihydrotetrabenazine, human platelet homogenate, 25° C., 90 minutes, read-out: VMAT2 Ki

human VMAT2, sequence (Q05940 whole entry): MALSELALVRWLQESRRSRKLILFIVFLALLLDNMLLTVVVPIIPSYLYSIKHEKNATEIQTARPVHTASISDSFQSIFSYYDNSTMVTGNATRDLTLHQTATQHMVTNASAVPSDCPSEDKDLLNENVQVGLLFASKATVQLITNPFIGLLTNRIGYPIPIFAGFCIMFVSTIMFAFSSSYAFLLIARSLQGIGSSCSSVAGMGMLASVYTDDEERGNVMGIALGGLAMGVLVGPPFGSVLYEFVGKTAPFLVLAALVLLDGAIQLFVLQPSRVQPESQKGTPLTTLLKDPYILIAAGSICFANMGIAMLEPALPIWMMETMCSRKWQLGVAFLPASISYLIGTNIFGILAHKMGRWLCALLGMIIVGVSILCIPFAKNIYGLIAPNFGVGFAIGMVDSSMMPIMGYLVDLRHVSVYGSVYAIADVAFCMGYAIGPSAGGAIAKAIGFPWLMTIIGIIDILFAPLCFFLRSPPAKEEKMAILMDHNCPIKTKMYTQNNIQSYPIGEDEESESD

| SMILES | Ki [1, 3] [nM] | CLint scaled at 0.5 μM [2] [mL/min/kg] | half-life at 0.5 μM [2] [min] | Predicted Max. Bioavailability (% F) [2] [% F] | HLM Predicted Systemic Clearance [2] [mL/min/kg] | Ki [1] [nM] |
| --- | --- | --- | --- | --- | --- | --- |
| C=C(C)COc1cc2c(cc1OC)[C@H]1C[C@@H](O)[C@H](CC(C)(C)C)CN1CC2 [Compound 4-56, (2R,3R,11bR)-3-(2,2-dimethylpropyl)-10-methoxy-9-[(2-methylprop-2-en-1-yl)oxy]-1H,2H,3H,4H,6H,7H,11bH-pyrido[2,1-a]isoquinolin-2-ol] | 0.52 | 121 | 10 | 14 | 17.16 |  |
| COc1cc2c(cc1OCC(F)F)CCN1C[C@@H](CC(C)(C)C)[C@H](O)C[C@H]21 [Compound 4-13, (2R,3R,11bR)-9-(2,2-difluoroethoxy)-3-(2,2-dimethylpropyl)-10-methoxy-1H,2H,3H,4H,6H,7H,11bH-pyrido[2,1-a]isoquinolin-2-ol] | 2.2 | ≤ 2.97 | ≥ 420 | ≥87 | ≤2.59 |  |
| COc1cc2c(cc1OCCCC(F)(F)F)CCN1C[C@@H](CC(C)(C)C)[C@H](O)C[C@H]21 [Compound 4-120, (2R,3R,11bR)-3-(2,2-dimethylpropyl)-10-methoxy-9-(4,4,4-trifluorobutoxy)-1H,2H,3H,4H,6H,7H,11bH-pyrido[2,1-a]isoquinolin-2-ol] | 1.5 | ≤ 2.97 | ≥ 420 | ≥87 | ≤2.59 |  |
| COc1cc2c(cc1O[C@@H]1CCOC1)CCN1C[C@@H](CC(C)(C)C)[C@H](O)C[C@H]21 [Compound 4-53, (2R,3R1bR)-3-(2,2-dimethylpropyl)-10-methoxy-9-[(3R)-oxolan-3-yloxy]-1H,2H,3H,4H,6H,7H,11bH-pyrido[2,1-a]isoquinolin-2-ol] | 12 | 8.57 | 146 | 70 | 6 |  |
| COc1cc2c(cc1OCC1CC(O)(C(F)(F)F)C1)CCN1C[C@@H](CC(C)(C)C)[C@H](O)C[C@H]21 (stereo partly drawn) [Compound 4-78, (2R,3R,11bR)-3-(2,2-dimethylpropyl)-9-{[3-hydroxy-3-(trifluoro-methyl)cyclobutyl]methoxy}-10-methoxy-1H,2H,3H,4H,6H,7H,11bH-pyrido[2,1-a]isoquinolin-2-ol] | 92 | 6.41 | 195 | 76 | 4.86 |  |
| COc1cc2c(cc1OCC(F)(F)F)CCN1C[C@@H](CC(C)(C)C)[C@@H](O)C[C@H]21 [Compound 4-16, (2S,3R,11bR)-3-(2,2-dimethylpropyl)-10-methoxy-9-(2,2,2-trifluoroethoxy)-1H,2H,3H,4H,6H,7H,11bH-pyrido[2,1-a]isoquinolin-2-ol] | 22 | ≤ 2.97 | ≥ 420 | ≥87 | ≤2.59 |  |
| COc1cc2c(cc1OCC(F)F)CCN1C[C@@H](CC(C)(C)C)[C@@H](O)C[C@H]21 [Compound 4-10, (2S,3R,11bR)-9-(2,2-difluoroethoxy)-3-(2,2-dimethylpropyl)-10-methoxy-1H,2H,3H,4H,6H,7H,11bH-pyrido[2,1-a]isoquinolin-2-ol] | 15 | 3.65 | 342 | 85 | 3.09 |  |
| COc1cc2c(cc1OC)[C@H]1C[C@@H](O)[C@H](CC(C)(C)C)CN1CC2 [Compound 5-1, (2R,3R,11bR)-3-(2,2-dimethylpropyl)-9,10-dimethoxy-1H,2H,3H,4H,6H,7H,11bH-pyrido[2,1-a]isoquinolin-2-ol] | 6.6 | 15.6 | 80 | 56 | 8.77 |  |
| COc1cc2c(cc1OCC(F)(F)Cl)CCN1C[C@@H](CC(C)(C)C)[C@H](O)C[C@H]21 [Compound 4-65, (2R,3R,11bR)-9-(2-chloro-2,2-difluoroethoxy)-3-(2,2-dimethylpropyl)-10-methoxy-1H,2H,3H,4H,6H,7H,11bH-pyrido[2,1-a]isoquinolin-2-ol] | 8.7 | 5.5 | 227 | 78 | 4.31 |  |
| COc1cc2c(cc1OCC1CC1(F)F)CCN1C[C@@H](CC(C)(C)C)[C@H](O)C[C@H]21 (stereo partly drawn) [Compound 4-121, (2R,3R,11bR)-9-[(2,2-difluorocyclopropyl)methoxy]-3-(2,2-dimethylpropyl)-10-methoxy-1H,2H,3H,4H,6H,7H,11bH-pyrido[2,1-a]isoquinolin-2-ol] | 0.82 | 4.46 | 280 | 82 | 3.64 |  |
| CC[C@@H]1C[C@H]1COc1cc2c(cc1OC)[C@H]1C[C@@H](O)[C@H](CC(C)(C)C)CN1CC2 [Compound 4-90, (2R,3R,11bR)-3-(2,2-dimethylpropyl)-9-{[(1R,2R)-2-ethylcyclopropyl]methoxy}-10-methoxy-1H,2H,3H,4H,6H,7H,11bH-pyrido[2,1-a]isoquinolin-2-ol] | 0.29 | 156 | 8 | 11 | 17.72 |  |
| COc1cc2c(cc1OCC1(C(F)F)CC1)CCN1C[C@@H](CC(C)(C)C)[C@H](O)C[C@H]21 [Compound 4-57, (2R,3R,11bR)-9-{[1-(difluoromethyl)cyclo-propyl]methoxy}-3-(2,2-dimethylpropyl)-10-methoxy-1H,2H,3H,4H,6H,7H,11bH-pyrido[2,1-a]isoquinolin-2-ol] | 0.93 | ≤ 2.97 | ≥ 420 | ≥87 | ≤2.59 |  |
| COc1cc2c(cc1OCc1ccc(C#N)o1)CCN1C[C@@H](CC(C)(C)C)[C@H](O)C[C@H]21 [Compound 4-59, 5-({[(2R,3R,11bR)-3-(2,2-dimethylpropyl)-2-hydroxy-10-methoxy-1H,2H,3H,4H,6H,7H,11bH-pyrido[2,1-a]isoquinolin-9-yl]oxy}methyl)furan-2-carbonitrile] | 1.5 | 24.8 | 50 | 45 | 11.08 |  |
| COc1cc2c(cc1OCCN1CCC(F)(F)C1)CCN1C[C@@H](CC(C)(C)C)[C@H](O)C[C@H]21 [Compound 4-71, (2R,3R,11bR)-9-[2-(3,3-difluoropyrrolidin-1-yl)ethoxy]-3-(2,2-dimethylpropyl)-10-methoxy-1H,2H,3H,4H,6H,7H,11bH-pyrido[2,1-a]isoquinolin-2-ol] | 37 | 38.4 | 33 | 34 | 13.15 |  |
| [2H]C([2H])([2H])Oc1cc2c(cc1OC)[C@H]1C[C@@H](O)[C@H](CC(C)(C)C)CN1CC2 [Compound 4-52, (2R,3R,11bR)-3-(2,2-dimethylpropyl)-9-(methoxy-d3)-10-methoxy-1H,2H,3H,4H,6H,7H,11bH-pyrido[2,1-a]isoquinolin-2-ol] |  | ≤ 2.97 | ≥ 420 | ≥87 | ≤2.59 | 2.5 |
| COc1cc2c(cc1OCC1(F)COCCOC1)CCN1C[C@@H](CC(C)(C)C)[C@H](O)C[C@H]21 [Compound 4-72, (2R,3R,11bR)-3-(2,2-dimethylpropyl)-9-[(6-fluoro-1,4-dioxepan-6-yl)methoxy]-10-methoxy-1H,2H,3H,4H,6H,7H,11bH-pyrido[2,1-a]isoquinolin-2-ol] | 51 | 15.6 | 80 | 56 | 8.77 |  |
| CCOc1cc2c(cc1OC)[C@H]1C[C@@H](O)[C@H](CC(C)(C)C)CN1CC2 [Compound 4-17, (2R,3R,11bR)-3-(2,2-dimethylpropyl)-9-ethoxy-10-methoxy-1H,2H,3H,4H,6H,7H,11bH-pyrido[2,1-a]isoquinolin-2-ol] | 1.1 | 32.9 | 38 | 38 | 12.44 |  |
| COc1cc2c(cc1OCCC(F)(F)F)CCN1C[C@@H](CC(C)(C)C)[C@@H](O)C[C@H]21 [Compound 4-12, (2S,3R,11bR)-3-(2,2-dimethylpropyl)-10-methoxy-9-(3,3,3-trifluoropropoxy)-1H,2H,3H,4H,6H,7H,11bH-pyrido[2,1-a]isoquinolin-2-ol] | 3.4 | ≤ 2.97 | ≥ 420 | ≥87 | ≤2.59 |  |
| COc1cc2c(cc1OCC1CCC1)CCN1C[C@@H](CC(C)(C)C)[C@H](O)C[C@H]21 [Compound 4-119, (2R,3R,11bR)-9-(cyclobutylmethoxy)-3-(2,2-dimethylpropyl)-10-methoxy-1H,2H,3H,4H,6H,7H,11bH-pyrido[2,1-a]isoquinolin-2-ol] | 0.29 | 134 | 9 | 13.00 | 17.4 |  |
